Patent publication US12509444B2, “Compounds and methods for CD73 modulation and indications therefor” (Plexxikon Inc., priority 2019, dated 2025)

Tests used:
human CD73 = target: T1, human CD73 (Homo sapiens, UniProt P21589); experiment: Inhibitor activity against CD73 in cell based assay (CD73 expressing CHO-K1 cells); settings: CHO-K1 cells expressing human CD73, 150 μM AMP, 4 hours of incubation; read-out: CHO-K1 CELL VARIANT: CD73 IC50
T1 construct: expressed in transfected cells
T1 sequence (P21589 27-549): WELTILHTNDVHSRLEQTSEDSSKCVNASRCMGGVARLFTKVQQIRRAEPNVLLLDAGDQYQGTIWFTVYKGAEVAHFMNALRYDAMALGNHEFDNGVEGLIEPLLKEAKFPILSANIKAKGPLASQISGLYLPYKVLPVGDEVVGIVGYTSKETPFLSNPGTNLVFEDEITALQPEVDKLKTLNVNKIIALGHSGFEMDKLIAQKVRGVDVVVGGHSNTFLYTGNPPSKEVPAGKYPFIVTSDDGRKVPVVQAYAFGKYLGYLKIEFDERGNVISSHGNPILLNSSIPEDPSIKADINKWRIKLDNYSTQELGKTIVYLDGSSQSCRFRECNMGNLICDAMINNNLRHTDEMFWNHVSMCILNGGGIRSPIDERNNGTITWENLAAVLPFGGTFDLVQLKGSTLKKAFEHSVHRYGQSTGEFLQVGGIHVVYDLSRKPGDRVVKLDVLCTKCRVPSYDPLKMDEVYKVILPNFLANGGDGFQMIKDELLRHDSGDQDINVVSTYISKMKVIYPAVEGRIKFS
In short: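 Residual supernatant AMP was quantified via CellTiter-Glo luminescence (1 μM ATP added, 30 min, room temperature) after a 4 h exposure of human CD73-expressing CHO-K1 cells to 150 μM AMP plus compound, top final 10 μM, 8 points. IC50 came from nonlinear regression of percent inhibition.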

[1] = target: T2, Human CD73 (amino acid residues 27-549) (Homo sapiens, UniProt P21589); experiment: CD73 enzymatic assay (luciferase-based indirect assay, CellTiter-Glo); assay type: biochemical; settings: 0.4 nM CD73, 150 μM AMP, 1 hour at room temperature
T2 construct: Human CD73 (amino acid residues 27-549); His tag (N); made in house; host or cells: E. coli
T2 sequence (P21589 27-549): T1 sequence (P21589 27-549)
In short: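 Residual AMP inhibits luciferase, so luminescence reports CD73 turnover; read with CellTiter-Glo 2.0 plus 1 μM final ATP, 30 min. Reaction used 0.4 nM N-His CD73 (27-549, E. coli), 150 μM AMP, HEPES pH 7.4 with Tween 20, 1 h at room temperature. IC50 fitted by nonlinear regression.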

| Compound | IC50 (human CD73) [µM] | IC50 [1] [µM] |
| --- | --- | --- |
| O=C(N[C@@H]1CCC[C@H]1O)O[C@@H]1CCN(c2cnn(CCO)c(=O)c2Cl)C1 [P-0477, (R)-1-(5-chloro-1-(2-hydroxyethyl)-6-oxo-1,6-dihydropyridazin-4-yl)pyrrolidin-3-yl ((1R,2R)-2-hydroxycyclopentyl)carbamate] | 0.001 to 10 | 0.001 to 10 |
| O=C(N[C@@H]1CCC[C@@H]1C(F)(F)F)O[C@@H]1CCN(c2cnn(CCO)c(=O)c2Cl)C1 [P-0478, (R)-1-(5-chloro-1-(2-hydroxyethyl)-6-oxo-1,6-dihydropyridazin-4-yl)pyrrolidin-3-yl ((1R,2S)-2-(trifluoromethyl)cyclopentyl) carbamate] | 0.001 to 10 | 0.001 to 10 |
| O=C(NC1CCCC(F)(F)C1)O[C@@H]1CCN(c2cnn(CCO)c(=O)c2Cl)C1 (stereo partly drawn) [P-0479, (R)-1-(5-chloro-1-(2-hydroxyethyl)-6-oxo-1,6-dihydropyridazin-4-yl)pyrrolidin-3-yl (3,3-difluorocyclohexyl)carbamate] | 0.001 to 10 | 0.001 to 10 |
| O=C(NC1(C2CC2)CC1)O[C@@H]1CCN(c2cnn(CCO)c(=O)c2Cl)C1 [P-0480, (R)-1-(5-chloro-1-(2-hydroxyethyl)-6-oxo-1,6-dihydropyridazin-4-yl)pyrrolidin-3-yl [1,1′-bi(cyclopropan)]-1-ylcarbamate] | 0.001 to 10 | 0.001 to 10 |
| O=C(N[C@@H]1CCC[C@@H]1O)O[C@@H]1CCN(c2cn[nH]c(=O)c2Cl)C1 [P-0481, (R)-1-(5-chloro-6-oxo-1,6-dihydropyridazin-4-yl)pyrrolidin-3-yl ((1R,2S)-2-hydroxycyclopentyl)carbamate] | 0.001 to 10 | 0.001 to 10 |
| O=C(N[C@H]1CC[C@@H](NC2CCC(F)(F)CC2)CC1)O[C@@H]1CCN(c2cn[nH]c(=O)c2Cl)C1 [P-0482, (R)-1-(5-chloro-6-oxo-1,6-dihydropyridazin-4-yl)pyrrolidin-3-yl ((1s,4S)-4-((4,4-difluorocyclohexyl)amino)cyclohexyl)carbamate] | 0.001 to 10 | 0.001 to 10 |
| N#Cc1c(N2C[C@H](OC(=O)NC3CCC(F)(F)CC3)[C@@H](F)C2)cn[nH]c1=O [P-0483, (3S,4S)-1-(5-cyano-6-oxo-1,6-dihydropyridazin-4-yl)-4-fluoropyrrolidin-3-yl (4,4-difluorocyclohexyl)carbamate] | 0.001 to 10 | 0.001 to 10 |
| N#Cc1c(N2C[C@H](OC(=O)NC3CCCC3)[C@@H](F)C2)cn[nH]c1=O [P-0484, (3S,4S)-1-(5-cyano-6-oxo-1,6-dihydropyridazin-4-yl)-4-fluoropyrrolidin-3-yl cyclopentylcarbamate] | 0.001 to 10 | 0.001 to 10 |
| N#Cc1c(N2C[C@H](OC(=O)NC3CCC(F)(F)CC3)[C@@H](F)C2)cnn(CCO)c1=O [P-0485, (3S,4S)-1-(5-cyano-1-(2-hydroxyethyl)-6-oxo-1,6-dihydropyridazin-4-yl)-4-fluoropyrrolidin-3-yl (4,4-difluorocyclohexyl)carbamate] | 0.001 to 10 | 0.001 to 10 |
| N#Cc1c(N2C[C@H](OC(=O)NC3CCCC3)[C@@H](F)C2)cnn(CCO)c1=O [P-0486, (3S,4S)-1-(5-cyano-1-(2-hydroxyethyl)-6-oxo-1,6-dihydropyridazin-4-yl)-4-fluoropyrrolidin-3-yl cyclopentylcarbamate] | 0.001 to 10 | 0.001 to 10 |
| O=C(N[C@H]1CC[C@@H](NC2CCOCC2)CC1)O[C@@H]1CCN(c2cn[nH]c(=O)c2Cl)C1 [P-0487, (R)-1-(5-chloro-6-oxo-1,6-dihydropyridazin-4-yl)pyrrolidin-3-yl ((1s,4S)-4-((tetrahydro-2H-pyran-4-yl)amino)cyclohexyl)carbamate] | 0.001 to 10 | 0.001 to 10 |
| O=C(N[C@H]1CC[C@@H](NC2CC3CCC2C3)CC1)O[C@@H]1CCN(c2cn[nH]c(=O)c2Cl)C1 (stereo partly drawn) [P-0488, (R)-1-(5-chloro-6-oxo-1,6-dihydropyridazin-4-yl)pyrrolidin-3-yl ((1R,4S)-4-(((1S,4R)-bicyclo[2.2.1]heptan-2-yl)amino)cyclohexyl)carbamate] | 0.001 to 10 | 0.001 to 10 |

Now from value to compound:

| IC50 (human CD73) [µM] | IC50 [1] [µM] | Compound |
| --- | --- | --- |
| 0.001 to 10 | 0.001 to 10 | O=C(NC1CCC(F)(F)CC1)O[C@H]1CN(c2cn[nH]c(=O)c2Cl)C[C@@H]1F [P-0463, (3S,4S)-1-(5-chloro-6-oxo-1,6-dihydropyridazin-4-yl)-4-fluoropyrrolidin-3-yl (4,4-difluorocyclohexyl)carbamate] |
| 0.001 to 10 | 0.001 to 10 | O=C(NC1CCN(C(=O)C2(c3ccccc3)CC2)CC1)O[C@@H]1CCN(c2cn[nH]c(=O)c2Cl)C1 [P-0464, (R)-1-(5-chloro-6-oxo-1,6-dihydropyridazin-4-yl)pyrrolidin-3-yl (1-(1-phenylcyclopropane-1-carbonyl)piperidin-4-yl)carbamate] |
| 0.001 to 10 | 0.001 to 10 | O=C(NC1CCN(C(=O)C2(c3cccc(Br)c3)CC2)CC1)O[C@@H]1CCN(c2cn[nH]c(=O)c2Cl)C1 [P-0465, (R)-1-(5-chloro-6-oxo-1,6-dihydropyridazin-4-yl)pyrrolidin-3-yl (1-(1-(3-bromophenyl)cyclopropane-1-carbonyl)piperidin-4-yl)carbamate] |
| 0.001 to 10 | 0.001 to 10 | Cc1noc(C)c1CC(=O)N1CCC(NC(=O)O[C@@H]2CCN(c3cn[nH]c(=O)c3Cl)C2)CC1 [P-0466, (R)-1-(5-chloro-6-oxo-1,6-dihydropyridazin-4-yl)pyrrolidin-3-yl (1-(2-(3,5-dimethylisoxazol-4-yl)acetyl)piperidin-4-yl)carbamate] |
| 0.001 to 10 | 0.001 to 10 | O=C(N[C@@H]1CCC(F)(F)C1)O[C@@H]1CCN(c2cnn(CCO)c(=O)c2Cl)C1 [P-0467, (R)-1-(5-chloro-1-(2-hydroxyethyl)-6-oxo-1,6-dihydropyridazin-4-yl)pyrrolidin-3-yl ((R)-3,3-difluorocyclopentyl)carbamate] |
| 0.001 to 10 | 0.001 to 10 | NCCn1ncc(N2CC[C@@H](OC(=O)N[C@@H]3CCC(F)(F)C3)C2)c(Cl)c1=O [P-0468, (R)-1-(1-(2-aminoethyl)-5-chloro-6-oxo-1,6-dihydropyridazin-4-yl)pyrrolidin-3-yl ((R)-3,3-difluorocyclopentyl)carbamate] |
| 0.001 to 10 | 0.001 to 10 | O=C(N[C@@H]1CCC[C@H]1C(=O)O)O[C@@H]1CCN(c2cn[nH]c(=O)c2Cl)C1 [P-0469, (1R,2R)-2-(((((R)-1-(5-chloro-6-oxo-1,6-dihydropyridazin-4-yl)pyrrolidin-3-yl)oxy)carbonyl)amino) cyclopentane-1-carboxylic acid] |
| 0.001 to 10 | 0.001 to 10 | O=C(N[C@H]1CCC[C@@H]1O)O[C@@H]1CCN(c2cn[nH]c(=O)c2Cl)C1 [P-0471, (R)-1-(5-chloro-6-oxo-1,6-dihydropyridazin-4-yl)pyrrolidin-3-yl ((1S,2S)-2-hydroxycyclopentyl)carbamate] |
| 0.001 to 10 | 0.001 to 10 | CC(C)(C(=O)N1CCC(NC(=O)O[C@@H]2CCN(c3cn[nH]c(=O)c3Cl)C2)CC1)c1ccc(F)cc1 [P-0472, (R)-1-(5-chloro-6-oxo-1,6-dihydropyridazin-4-yl)pyrrolidin-3-yl (1-(2-(4-fluorophenyl)-2-methylpropanoyl)piperidin-4-yl)carbamate] |
| 0.001 to 10 | 0.001 to 10 | N#Cc1c(N2CC[C@@H](OC(=O)NC3CCCCC3)C2)cnn(CCO)c1=O [P-0473, (R)-1-(5-cyano-1-(2-hydroxyethyl)-6-oxo-1,6-dihydropyridazin-4-yl)pyrrolidin-3-yl cyclohexylcarbamate] |
| 0.001 to 10 | 0.001 to 10 | O=C(NC1CCC(F)(F)CC1)O[C@H]1CN(c2cnn(CCO)c(=O)c2Cl)C[C@@H]1F [P-0474, (3S,4S)-1-(5-chloro-1-(2-hydroxyethyl)-6-oxo-1,6-dihydropyridazin-4-yl)-4-fluoropyrrolidin-3-yl (4,4-difluorocyclohexyl)carbamate] |
| 0.001 to 10 | 0.001 to 10 | O=C(NC1CCCC1)O[C@H]1CN(c2cnn(CCO)c(=O)c2Cl)C[C@@H]1F [P-0475, (3S,4S)-1-(5-chloro-1-(2-hydroxyethyl)-6-oxo-1,6-dihydropyridazin-4-yl)-4-fluoropyrrolidin-3-yl cyclopentylcarbamate] |
| 0.001 to 10 | 0.001 to 10 | N#CC1(NC(=O)O[C@@H]2CCN(c3cnn(CCO)c(=O)c3Cl)C2)CCCC1 [P-0476, (R)-1-(5-chloro-1-(2-hydroxyethyl)-6-oxo-1,6-dihydropyridazin-4-yl)pyrrolidin-3-yl (1-cyanocyclopentyl)carbamate] |
